pIC50: −log10 of the molar value.
Tests used:
[1] = test system: HTB-9 bladder cancer cells; test: tissue or blood
[2] = test system: HTB-5 bladder cancer cells; test: tissue or blood
Hsp90β = Hsp90β (Homo sapiens (Human), UniProt P08238); test: fluorescence polarization (FP) assay, competitive displacement of FITC labeled Geldanamycin; format: binding; conditions: FP assay
Protocol: Once prepared, the compounds were evaluated for their binding affinities against the cytosolic isoforms, Hsp90α and Hsp90β by measuring their ability to competitively displace FITC labeled Geldanamycin (GDA) in a fluorescence polarization assay (apparent Kd's listed in Table 1). […] The alkyne (4k) was investigated to determine whether a linear substituent could project into the subpocket and affect selectivity.

[3] = test system: HCT-116 colon cancer cells; test: cells; conditions: Homo sapiens
[4] = test system: UM-UC3 bladder cancer cells; test: cells; conditions: Homo sapiens, UMUC3
K562 leukemia cells = test: cells; conditions: Homo sapiens
hERG channel = test: western blot analysis of hERG channel trafficking in hERG-HEK293 cells; format: cell-based; conditions: HEK293 cells expressing the hERG channel
Protocol: (§1) 0.5 μM GDA was included as positive control and vehicle (D=DMSO) as negative control. […] Hsp90α siRNA was included as positive control and vehicle (lipofectamine) as negative control.

[5] = test system: Hsp90 client proteins in HCT-116 cells; test: western blot analysis following treatment of HCT-116 cells; format: cell-based
Protocol: as §1

[6] = test system: HT1376 bladder cancer cells; test: cells; conditions: Homo sapiens, HT-1376
MOLM-13 leukemia cells = test: cells; conditions: Homo sapiens
[7] = test system: screened cancer cell lines; test: inhibitory activity against a variety of cancer cell lines; format: cell-based

Chain of Hsp90β (P08238 whole entry, canonical isoform): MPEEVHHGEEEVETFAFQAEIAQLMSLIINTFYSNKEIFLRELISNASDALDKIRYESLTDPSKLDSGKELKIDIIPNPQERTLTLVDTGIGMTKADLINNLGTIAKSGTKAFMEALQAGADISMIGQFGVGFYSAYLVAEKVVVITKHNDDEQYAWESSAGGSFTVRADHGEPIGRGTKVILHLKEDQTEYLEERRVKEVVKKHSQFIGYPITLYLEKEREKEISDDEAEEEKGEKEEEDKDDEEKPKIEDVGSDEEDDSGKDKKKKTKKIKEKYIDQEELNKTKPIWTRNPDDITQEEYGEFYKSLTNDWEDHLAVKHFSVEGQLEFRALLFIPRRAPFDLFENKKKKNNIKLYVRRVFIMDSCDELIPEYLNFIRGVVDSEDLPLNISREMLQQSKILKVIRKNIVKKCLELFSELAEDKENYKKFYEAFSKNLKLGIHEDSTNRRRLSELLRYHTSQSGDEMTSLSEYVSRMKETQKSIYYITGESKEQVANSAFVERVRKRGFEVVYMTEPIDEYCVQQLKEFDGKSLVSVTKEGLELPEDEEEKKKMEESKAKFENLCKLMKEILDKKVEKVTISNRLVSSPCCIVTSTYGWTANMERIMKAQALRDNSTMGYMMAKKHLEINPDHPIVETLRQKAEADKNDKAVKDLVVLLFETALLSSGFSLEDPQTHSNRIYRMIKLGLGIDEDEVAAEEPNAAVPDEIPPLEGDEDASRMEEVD

**Q.** `CCCC1Cc2cc(-n3nc(C)c4c3CC(C)(C)CC4=O)cc(N[C@H]3CC[C@H](O)CC3)c2C(=O)N1` (some centres unmarked) [Compound 6a, 8-(((1r,4r)-4-hydroxycyclohexyl)amino)-3-propyl-6-(3,6,6-trimethyl-4-oxo-4,5,6,7-tetrahydro-1H-indazol-1-yl)-3,4-dihydroisoquinolin-1(2H)-one] was tested. Which pIC50 [1] did it give?
**A.** 6.09

**Q.** What about the pIC50 [2] of the same compound?
**A.** 6.03

**Q.** What about the “affinity for Hsp90β (in words)” value (Hsp90β) of the same compound?
**A.** increased binding affinity

**Q.** And the “selectivity for Hsp90β over Hsp90α (in words)” value (Hsp90β)?
**A.** enhanced selectivity

**Q.** And the pIC50 [3]?
**A.** 6.58

**Q.** What about the pIC50 [4] of the same compound?
**A.** 5.98

**Q.** And the pIC50 (K562 leukemia cells)?
**A.** 6.30

**Q.** What about the “hERG channel maturation and trafficking” value (hERG channel) of the same compound?
**A.** not affected

**Q.** And the “CDK4, CDK6, cIAP1 and CXCR4 levels (Hsp90β-dependent clients)” value [5]?
**A.** induced the degradation

**Q.** What about the “total levels of Akt-1 and Raf-1” value [5] of the same compound?
**A.** not affected

**Q.** And the “Hsf-1, Hsp70 and Hsp90 levels” value ([5]; 24 h exposure)?
**A.** induced the degradation

**Q.** And the pIC50 [6]?
**A.** 6.15

**Q.** And the pIC50 (MOLM-13 leukemia cells)?
**A.** 7.40

**Q.** What about the “IC50 values against the screened cancer cell lines (in words)” value [7] of the same compound?
**A.** submicromolar

Source: US12030867B2, “Hsp90β selective inhibitors” (University of Notre Dame du Lac, priority 2018, dated 2024)
